Measured values as given in US4017637A, “Benzylamine analgesics” (priority 1975, dated 1977).
Counter-ions that a name gives are not always drawn.

Tested on: rats
Assay: Analgesic activity in rats, light beam on tip of tail (modified D'Amour and Smith procedure)
Assay type: in vivo, rat
Settings: for ED50: Rattus norvegicus
Procedure: Rats weighing approximately 150 to 200 g. are placed in individual holders, and each holder in turn is situated so that a high intensity light beam shines on the tip of the tail. The intensity of the light beam is adjusted so that normal rats respond by moving their tails out of the light beam in 3 to 8 seconds. The average of two readings taken 20 minutes apart serves as a pre-drug control. Rats are selected for use whose control readings agree within 1 second. Compounds are administered and reaction times are measured every 20 minutes for 2 hours. Analgesic agents cause a significant increase in reaction time.

CN(C)C(c1cccc(O)c1)[C@H]1CCCC[C@H]1O (relative stereo) [1-cis-2-(α-dimethylamino-m-hydroxybenzyl)cyclohexanol]
No. Rats Showing Analgesia/No. Rats Tested (I.M., 0.41 mg/kg): 4/10
No. Rats Showing Analgesia/No. Rats Tested (I.M., 0.62 mg/kg): 7/10
No. Rats Showing Analgesia/No. Rats Tested (I.P., 3.12 mg/kg): 8/10
No. Rats Showing Analgesia/No. Rats Tested (I.P., 6.25 mg/kg): 6/10
No. Rats Showing Analgesia/No. Rats Tested (P.O., 3.12 mg/kg): 5/10
No. Rats Showing Analgesia/No. Rats Tested (P.O., 6.25 mg/kg): 7/10

CCC(=O)O[C@@H]1CCCC[C@@H]1C(c1cccc(OC)c1)N(C)C.Cl (relative stereo) [Cis-2-[α-Dimethylamino-m-Methoxybenzyl]Cyclohexanol Propionate, Hydrochloride]
No. Rats Showing Analgesia/No. Rats Tested (I.M., 15.0 mg/kg): 3/10
No. Rats Showing Analgesia/No. Rats Tested (I.P., 12.5 mg/kg): 3/5

CN(C)C(c1ccccc1)[C@H]1CCCC[C@H]1O (relative stereo) [Cis-2-[α-Dimethylaminobenzyl]-Cyclohexanol]
No. Rats Showing Analgesia/No. Rats Tested (I.M., 6.25 mg/kg): 8/10
No. Rats Showing Analgesia/No. Rats Tested (I.P., 6.25 mg/kg): 9/10
No. Rats Showing Analgesia/No. Rats Tested (I.P., 12.5 mg/kg): 8/10
No. Rats Showing Analgesia/No. Rats Tested (P.O., 5.0 mg/kg): 6/10

COc1cccc(C([C@H]2CCCC[C@H]2O)N(C)C)c1 (relative stereo) [cis-2-(α-dimethylamino-m-methoxybenzyl)cyclohexanol]
No. Rats Showing Analgesia/No. Rats Tested (I.P., 25.0 mg/kg): 3/5

COCOc1cccc(C([C@H]2CCCC[C@H]2O)N(C)C)c1 (relative stereo) [cis-2-[α-dimethylamino-m-(methoxymethoxy)benzyl]cyclohexanol]
No. Rats Showing Analgesia/No. Rats Tested (I.M., 2.5 mg/kg): 3/10
No. Rats Showing Analgesia/No. Rats Tested (I.M., 5.0 mg/kg): 5/10
No. Rats Showing Analgesia/No. Rats Tested (I.P., 6.25 mg/kg): 2/5
No. Rats Showing Analgesia/No. Rats Tested (I.P., 25.0 mg/kg): 5/5

CN(C)C(c1cccc(O)c1)[C@H]1CCCC[C@H]1O (stereo partly drawn) [Cis-2-(α-Dimethylamino-m-Hydroxybenzyl) Cyclohexanol, Hydrochloride]
No. Rats Showing Analgesia/No. Rats Tested (I.M., 2.5 mg/kg): 5/10
No. Rats Showing Analgesia/No. Rats Tested (I.P., 3.12 mg/kg): 3/5
No. Rats Showing Analgesia/No. Rats Tested (I.P., 12.5 mg/kg): 4/5
No. Rats Showing Analgesia/No. Rats Tested (P.O., 5.0 mg/kg): 5/10

CN1CC[C@]23c4c5ccc(O)c4O[C@H]2[C@@H](O)C=C[C@H]3[C@H]1C5 [morphine, reference compound]
ED50 (im): 2 mg/kg
ED50 (ip): 3.5 mg/kg
ED50 (po): 10 mg/kg
